# Results reported in patent US7994167B2, “Pentafluorosulphanyl-substituted compound and its use for producing medicaments” (Gruenenthal GmbH, priority 2005, dated 2011).
# Read-outs that look alike come from different tables or passages of the source.
# Tests used:
# [1] = target: T1, VR1 (human) (Homo sapiens, UniProt Q8NER1); experiment: FLIPR Ca2+ influx assay in CHO K1 cells stably transfected with the VR1 gene (functional investigation II); format: cell-based; conditions: for VR1 (human) (% blocking compared with 1 μM CP) / VR1 (human) (% stimulation compared with 1 μM CP): VR1-transfected CHO K1 cells; for VR1 (human) (% blocking compared with 1 μM CP): 5 min incubation, then 100 nM capsaicin; for VR1 (human) (% stimulation compared with 1 μM CP): Ca2+ signal relative to capsaicin (CP)
# T1 construct: expressed in transfected cells; host or cells: CHO K1 cells (ECACC)
# T1 sequence (Q8NER1 whole entry): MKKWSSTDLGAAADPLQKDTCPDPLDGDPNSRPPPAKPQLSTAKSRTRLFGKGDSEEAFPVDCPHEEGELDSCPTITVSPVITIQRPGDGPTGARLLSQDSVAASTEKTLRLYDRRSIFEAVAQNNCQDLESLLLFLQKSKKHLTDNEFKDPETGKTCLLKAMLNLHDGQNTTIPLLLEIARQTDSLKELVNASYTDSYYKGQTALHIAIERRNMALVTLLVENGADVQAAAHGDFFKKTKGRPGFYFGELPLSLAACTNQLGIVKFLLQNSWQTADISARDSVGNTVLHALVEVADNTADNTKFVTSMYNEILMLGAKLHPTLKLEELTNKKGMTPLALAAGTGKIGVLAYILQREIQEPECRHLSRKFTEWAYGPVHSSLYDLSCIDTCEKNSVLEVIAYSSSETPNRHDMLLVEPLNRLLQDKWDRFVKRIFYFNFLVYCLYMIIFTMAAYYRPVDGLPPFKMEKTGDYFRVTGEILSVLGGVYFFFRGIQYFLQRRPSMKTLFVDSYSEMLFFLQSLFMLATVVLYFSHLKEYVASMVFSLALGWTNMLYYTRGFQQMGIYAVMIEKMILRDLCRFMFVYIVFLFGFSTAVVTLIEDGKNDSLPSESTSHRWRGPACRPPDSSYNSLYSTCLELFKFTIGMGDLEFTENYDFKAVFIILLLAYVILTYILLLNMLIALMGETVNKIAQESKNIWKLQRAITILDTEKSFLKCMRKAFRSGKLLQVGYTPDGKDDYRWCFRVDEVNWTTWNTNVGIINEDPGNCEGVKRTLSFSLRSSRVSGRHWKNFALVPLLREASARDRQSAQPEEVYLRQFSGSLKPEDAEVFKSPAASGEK
# Text: II. Functional Investigation Using the Vanilloid Receptor (VR1)
# The agonistic or antagonistic effect of the substances to be investigated on the vanilloid receptor (VR1) can also be determined with the following assay. According to this assay, the Ca^2+ influx through the channel can be quantified with the aid of a Ca^2+ sensitive dye (of the type Fluo-4, from Molecular Probes, Europe BV, Leiden, Netherlands) in a Fluorescent Imaging Plate Reader (FLIPR, from Molecular Devices, Sunnyvale, USA).
# Chinese hamster ovary cells (CHO K1-cells, from the European Collection of Cell Cultures (ECACC), UK) were stably transfected with the VR1 gene. For functional investigations, these cells were plated out on Poly-D-lysine-coated, black 96-well plates with clear bases (from BD Biosciences, Heidelberg, Germany) at a density of 25,000 cells/well. The cells were incubated over night at 37° C. and under 5% CO2 in a culture medium (Nutrient Mixture Ham's F12, 10% by volume FCS (foetal calf serum), 18 μg/ml L-proline). The following day, the cells were incubated with Fluo-4 (Fluo-4 2 μM, Pluronic F127 0.01% by volume, from Molecular Probes in HBSS (Hank's buffered saline solution), from Gibco Invitrogen GmbH, Karlsruhe, Germany) for 30 minutes at 37° C. Subsequently, the plates were washed 3 times with HBSS buffer and, following a further period of incubation for 15 minutes at room temperature, placed in the FLIPR for Ca^2+ measurement. The Ca^2+-dependent fluorescence was measured before and after the addition of the substances to be investigated (wavelength λBX=488 nm, λem=540 nm). Quantification took place by measuring the highest intensity of fluorescence (FC, fluorescence counts) over time.
# The FLIPR protocol comprises 2 substance additions. […] Following 5 minutes of incubation, 100 nM capsaicin were applied and the Ca^2+ influx determined again.
# Desensitising agonists and antagonists lead to a suppression of the Ca^2+ influx. % inhibition is calculated, compared with the maximum achievable inhibition with 10 μM capsaicin.
# [2] = target: vanilloid receptor 1 (VR1/TRPV1 receptor) (Homo sapiens, UniProt Q8NER1); experiment: Binding affinity for the vanilloid receptor 1
# Sequence of vanilloid receptor 1 (VR1/TRPV1 receptor) (Q8NER1 whole entry, species assumed): as the sequence (Q8NER1 whole entry) above
# Experimental: The affinity of the pentafluorosulphanyl-substituted compounds according to the invention for the vanilloid receptor 1 (VR1/TRPV1 receptor) was determined as described above.
# [3] = target: T2, vanilloid receptor 1 (VR1/TRPV1) of the rat (Rattus norvegicus, UniProt O35433); experiment: FLIPR Ca2+ influx assay in rat dorsal root ganglia cells (functional investigation I); format: cell-based; conditions: for IC50: VR1 rat; for VR1 (rat) (% blocking compared with 1 μM CP) / VR1 (rat) (% stimulation compared with 1 μM CP): rat DRG cells, test compound 1 μM; for VR1 (rat) (% blocking compared with 1 μM CP): 5 min incubation, then 100 nM capsaicin; for VR1 (rat) (% stimulation compared with 1 μM CP): Ca2+ signal relative to 1 μM capsaicin (CP)
# T2 construct: The spinal column was removed from decapitated rats; from tissue; host or cells: primary rat dorsal root ganglion (DRG) cells
# T2 sequence (O35433 whole entry): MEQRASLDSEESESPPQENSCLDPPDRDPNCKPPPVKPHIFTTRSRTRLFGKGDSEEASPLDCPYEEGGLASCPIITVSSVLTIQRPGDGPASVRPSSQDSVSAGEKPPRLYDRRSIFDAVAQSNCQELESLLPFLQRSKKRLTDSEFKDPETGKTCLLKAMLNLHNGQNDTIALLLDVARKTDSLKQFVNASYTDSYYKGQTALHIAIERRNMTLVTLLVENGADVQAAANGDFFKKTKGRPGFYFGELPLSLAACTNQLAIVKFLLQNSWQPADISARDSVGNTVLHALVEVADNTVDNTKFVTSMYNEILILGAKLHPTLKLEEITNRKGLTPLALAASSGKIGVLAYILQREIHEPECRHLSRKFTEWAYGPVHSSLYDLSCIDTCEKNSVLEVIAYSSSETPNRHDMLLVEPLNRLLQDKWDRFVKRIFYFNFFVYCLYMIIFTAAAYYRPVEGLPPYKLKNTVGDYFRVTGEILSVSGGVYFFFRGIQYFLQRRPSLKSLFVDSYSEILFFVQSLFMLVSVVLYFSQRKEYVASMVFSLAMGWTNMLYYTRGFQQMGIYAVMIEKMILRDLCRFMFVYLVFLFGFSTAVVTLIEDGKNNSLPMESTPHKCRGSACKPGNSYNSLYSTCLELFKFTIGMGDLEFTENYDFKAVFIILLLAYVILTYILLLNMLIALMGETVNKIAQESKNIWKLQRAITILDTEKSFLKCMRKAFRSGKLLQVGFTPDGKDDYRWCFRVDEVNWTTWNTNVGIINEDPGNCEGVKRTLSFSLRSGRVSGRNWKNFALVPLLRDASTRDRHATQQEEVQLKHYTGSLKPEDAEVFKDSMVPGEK
# Text: I. Functional Investigation Using the Vanilloid Receptor 1 (VR1/TRPV1 Receptor)
# The agonistic and antagonistic effects of the substances under investigation on the vanilloid receptor 1 (VR1/TRPV1) of the rat can be determined using the following assay. According to this assay, the Ca^2+ influx through the receptor channel is quantified with the aid of a Ca^2+-sensitive dye (of the type Fluo-4, from Molecular Probes Europe BV, Leiden, Netherlands) in a Fluorescent Imaging Plate Reader (FLIPR, from Molecular Devices, Sunnyvale, USA).
# Complete medium: 10% by volume FCS (foetal calf serum, from Gibco Invitrogen GmbH, Karlsruhe, Germany, heat deactivated);
# 2 mM L-glutamine (from Sigma, Munich, Germany);
# 1% by weight of AA solution (antibiotic/antimycotic solution, from PAA, Pasching, Austria) and 25 ng/ml Medium NGF (2.5 S, from Gibco Invitrogen GmbH, Karlsruhe, Germany)
# Cell culture plate: poly-D-lysine-coated, black 96-well plates with clear bases (96 well black/clear plate, from BD Biosciences, Heidelberg, Germany) were also coated with laminin (from Gibco Invitrogen GmbH, Karlsruhe, Germany), in that the laminin was diluted to a concentration of 100 μg/ml with PBS (Ca—Mg-free PBS, from Gibco Invitrogen GmbH, Karlsruhe, Germany). Aliquots with a concentration of 100 μg/ml of laminin were taken and stored at −20° C. The aliquots were diluted with PBS in a ratio of 1:10 to 10 μg/ml laminin and 50 μl of the solution was pipetted into each well in the cell culture plate. The cell culture plates were then incubated for at least two hours at 37° C., the residual solution drawn off and the wells washed twice with PBS. The coated cell culture plates were stored with the residual PBS, which was removed immediately before offering up the cells.
# Preparation of the Cells:
# The spinal column was removed from decapitated rats and laid directly into cold (placed in an ice bath) HBSS buffer (Hank's buffered saline solution, from Gibco Invitrogen GmbH, Karlsruhe, Germany) to which was added 1% by volume of an AA-solution (antibiotic/antimycotic solution, from PAA, Pasching, Austria). The spinal column was bisected longitudinally and removed, together with the fasciae, from the vertebral canal. The dorsal root ganglia (DRGs) were then removed and again placed in cold HBSS buffer to which was added 1% by volume of an AA-solution, and stored. The DRGs, completely freed from residual blood and spinal nerves were transferred, in each case, into 500 μl cold collagenase type 2 (from PAA, Pasching, Austria) and incubated for 35 minutes at 37° C. Following addition of 2.5% by volume of trypsin (from PAA, Pasching, Austria), the material was incubated for a further 10 minutes at 37° C. Following complete incubation, the enzyme solution was carefully pipetted off and 500 μl complete medium was added to the remaining DRGs. The DRGs were suspended several times in each case, drawn by means of a syringe through No. 1, No. 12 and No. 16 cannulae and transferred to 50 ml Falcon tubes and these then filled to 15 ml with complete medium. The contents of each Falcon tube was filtered through a 70 μm Falcon filter insert and centrifuged for 10 minutes at 1200 revolutions and at room temperature. The resulting pellet was added, in each case, to 250 μl complete medium and the cell count was determined.
# The number of cells in the suspension was adjusted to 3×10^5 per ml and, in each case, 150 μl of this suspension was placed in a well in the coated cell culture plate of the type described above. The plates were left in an incubation cupboard at 37° C. under 5% by volume CO2 and 95% relative humidity for two to three days. […]
"IC50 ([1]; VR1 human, read-out: IC50 (human)) [nM]",Ki ([2]; read-out: Binding Ki) [nM],Structure (SMILES),VR1 (human) (% blocking compared with 1 μM CP) [1] [%],VR1 (human) (% stimulation compared with 1 μM CP) [1] [%],IC50 [3] [nM],VR1 (rat) (% blocking compared with 1 μM CP) [3] [%],VR1 (rat) (% stimulation compared with 1 μM CP) [3] [%],IC50 [1] [nM],Ki [2] [nM]
800,84,"CS(=O)(=O)Nc1ccc(CNC(=S)NCc2ccc(S(F)(F)(F)(F)F)cc2)cc1F [Example 1, N-{4-[3-(4-pentafluorosulphanyl-benzyl)-thioureidomethyl]-2-fluoro-phenyl}-methanesulphonamide]",87.67,0.68,360,90.27,0.02,–,–
–,–,"O=C(Nc1ccc(S(F)(F)(F)(F)F)cc1)N1CCN(c2ncccc2Cl)CC1 [Example 2, 4-(3-chloro-pyridin-2-yl)-piperazine-1-carboxy-(4-pentafluorosulphanyl-phenyl)-amide]",105.44,3.72,48,101.93,0.63,250,12
–,94,"FS(F)(F)(F)(F)c1ccc(NC(=S)N2CCN(c3ncccc3Cl)CC2)cc1 [Example 3, 4-(3-chloro-pyridin-2-yl)-piperazine-1-thiocarboxy-(4-pentafluorosulphanyl-phenyl)-amide]",–,–,–,–,–,–,–
